Entries after “also recorded” stand apart in the source; their conditions may differ.
System: spontaneously beating neonatal rat cardiomyocytes (NRCMs)
Assay: Chronotropic effect on spontaneously beating neonatal rat cardiomyocytes (in vitro cardiac arrhythmia model)
Assay type: cell-based, neonatal Wistar rats
Conditions: 30 nM final concentration, 5 min incubation
Text: The activity of the n-3 PUFA analogues according to the invention can, for example, be determined in appropriate in vitro and/or in vivo assays. For instance, the biological activity of the n-3 PUFA analogues according to the present invention may be determined using the established cell model of Kang and Leaf (Proc Natl Acad Sci USA, 1994. 91(21): p. 9886-90.) known to those skilled in the art.
In order to measure the biological activities of the novel compounds an established cell model was used (Kang, J. X. and A. Leaf, Effects of long-chain polyunsaturated fatty acids on the contraction of neonatal rat cardiac myocytes. Proc Natl Acad Sci USA, 1994. 91(21): p. 9886-90.). The spontaneously beating neonatal rat cardiomyocytes (NRCMs) are a model system to investigate anti-arrhythmic effects of test-compounds.
Isolation and cultivation of NRCMs were performed as described previously (Wallukat, G; Wollenberger, A. Biomed Biochim Acta. 1987;78:634-639; Wallukat G, Homuth V, Fischer T, Lindschau C, Horstkamp B, Jupner A, Baur E, Nissen E, Vetter K, Neichel D, Dudenhausen J W, Haller H, Luft F C. J Clin Invest. 1999; 103: 945-952). Briefly, neonatal Wistar rats (1-2 days old) were killed in conformity to the recommendations of the Community of Health Service of the City of Berlin and the cardiomyocytes were dissociated from the minced ventricles with a 0.2% solution of crude trypsin. The isolated cells were then cultured as monolayers on the bottom (12.5 cm^2) of Falcon flasks in 2.5 ml of Halle SM 20-I medium equilibrated with humidified air. The medium contained 10% heat-inactivated FCS and 2 μmol/l fluoro-deoxyuridine (Serva, Heidelberg, Germany), the latter to prevent proliferation of non-muscle cells. The NRCMs (2.4×10^6 cells/flask) were cultured at 37° C. in an incubator. After 5 to 7 days, the NRCMs formed spontaneously beating cell clusters. […] On the day of the experiment, the culture medium was replaced by 2.0 ml fresh serum-containing medium. Two hours later, the beating rates were monitored at 37° C. using an inverted microscope equipped with a heating stage. To determine the basal rate, 6 to 8 individual clusters were selected and the number of contractions was counted for 15 sec. After that, the compound to be tested was added to the culture and the beating rate of the same clusters was monitored 5 min later again. Based on the difference between the basal and compound-induced beating rate of the individual clusters, the chronotropic effects (Δ beats/min) were calculated and are given as mean±SE values. N refers to the number of clusters monitored which originated, in general, from at least three independent NRCM cultures.
All compounds tested were added to the NRCMs at a final concentration of 30 nM and the measurement was performed after 5 min of incubation; except EPA that was used at a final concentration of 3.3 μM and the effect was monitored after 30 min of incubation.

Molecule | chronotropic effect on spontaneous beating rate (in words)
CCC1OC1C/C=C\C/C=C\C/C=C\C/C=C\CCCC(=O)O (stereo not shown) [17,18-EEQ, 17,18-epoxyeicosatetraenoic acid, reference compound] | negative chronotropic effect
CNC(=O)C(=O)NCCCC/C=C\CCCCCCCCCC1=NOS(=O)N1 (stereo not shown) [C38, N^1-methyl-N^2-(15-(2-oxido-3H-1,2,3,5-oxathiadiazol-4-yl)pentadec-5(Z)-en-1-yl)oxalamide] | negative chronotropic effect
CNC(=O)C(=O)NCCCC/C=C\CCCCCCCCCP(=O)([O-])[O-].[Na+].[Na+] [C41, disodium 15-(2-(methylamino)-2-oxoacetamido)pentadec-10(Z)-enylphosphonate] | negative chronotropic effect
CNC(=O)C(=O)NCCCC/C=C\CCCCCCCCCS(=O)(=O)[O-].[Na+] [C42, Sodium 15-(2-(methylamino)-2-oxoacetamido)pentadec-10(Z)-en-1-sulfonate] | negative chronotropic effect
CNC(=O)C(=O)NCCCC/C=C\CCCCCCCCCSc1ccccc1O [C44, (Z)—N^1-(15-((2-hydroxyphenyl)thio)pentadec-5-en-1-yl)-N^2-methyloxalamide] | lowest activity; also recorded: negative chronotropic effect
CNC(=O)C(=O)NCCCc1ccccc1CCCCCCP(=O)([O-])[O-].[Na+].[Na+] [C48] | negative chronotropic effects
CNC(=O)C(=O)NCCCCc1ccccc1CCCCCCCCCP(=O)([O-])[O-].[Na+].[Na+] [C49] | negative chronotropic effects
CNC(=O)C(=O)NCCCC/C=C\CCCCCCCCCC(=O)NS(=O)(=O)c1ccccc1 [C50, N^1-(16-phenylsulfonamido-16-oxohexadec-5(Z)-en-1-yl)-N^2-methyloxalamide] | negative chronotropic effect
N^1-(15-((2-acetamidobenzo[d]thiazol-7-yl)oxy)pentadec-5(Z)-en-1-yl)-N^2-methyloxalamide [C43] | negative chronotropic effect

Same assay, conditions: 30 nM final concentration, 5 min incubation, n=12 clusters

Molecule | chronotropic effect (Δ beats/min), mean±SE [beats/min]
CNC(=O)C(=O)NCCCC/C=C\CCCCCCCCCSc1ccccc1O [C44, (Z)—N^1-(15-((2-hydroxyphenyl)thio)pentadec-5-en-1-yl)-N^2-methyloxalamide] | −7.5±4.5
